In patent US20110155157A1, “CIGARETTE FILTER CONTAINING ROSEMARY EXTRACT AND A METHOD OF REDUCING DNA DAMAGE CAUSED BY HARMFUL AGENTS IN CIGARETTE SMOKE BY USE OF SAID FILTER” (priority 2006, published 2011):

System: calf thymus DNA
Assay: BPDE-dG adduct formation by cigarette smoke solution in a cell-free system with DNA and (+)-BP-7,8-diol

## Catalase
CSS diluted 1:19 with PBS pH 7.4, (+) BaP-7,8-diol, room temperature 2 h
  % BPDE-dG relative to standard CS: 12%
In words
  effect on the (−)-anti-BPDE-dG produced: inhibited the formation of the adduct
